From patent US20230399320A1, “NOVEL CAPSID ASSEMBLY INHIBITOR” (Pelemed Co., Ltd., priority 2020, published 2023)
Like-named read-outs stand apart in the source and are kept apart here.

Tests used:
[1] = molecular target: T1, Cp149 (truncated form of a HBV core protein) (Hepatitis B virus genotype D subtype ayw, UniProt P03146); assay: Protein based assay: immunoblot analysis of in vitro HBV capsid assembly; format: biochemical; conditions: for inhibition at 0.1 µM: read-out: Protein based assay (% inhibition), 0.1 μM; for inhibition at 1 µM: read-out: Protein based assay (% inhibition), 1 μM; for inhibition at 10 µM: read-out: Protein based assay (% inhibition, 10 μM)
T1 construct: Cp149 (amino acids 1-149) is a truncated form of a HBV core protein; histidine tag (cleaved yes); made in house; host or cells: Escherichia coli BL21(DE3)
Method: Cp149 (amino acids 1-149) is a truncated form of a HBV core protein. It was expressed in Escherichia coli, and the expressed protein was purified. The recombinant Cp149 was expressed in E. coli BL21(DE3) cells cultured in LB medium at 37° C. When the culture reached an OD600 of 0.7 to 0.8, expression of the culture was induced with 0.5 mM isopropyl-β-d-thiogalactopyranoside and the culture was cooled to 16° C. After 16 hours, the cells were harvested, flash-frozen in liquid nitrogen, and stored at −80° C. To purify Cp149, thawed cells were resuspended in lysis buffer (20 mM Tris-HCl pH 9.0, 200 mM NaCl, 10 mM imidazole, 10 μg per mL DNaseI, 1 mM phenylmethylsulfonyl fluoride), and treated with ultrasonic waves. The supernatant was loaded onto Ni-NTA affinity resin. Proteins were eluted using a 20 mM to 500 mM imidazole gradient dissolved in lysis buffer. After removing the histidine tag with thrombin, the protein was further purified by HiTrap Q anion exchange chromatography (17115401, GE Healthcare).
To determine the effect on in vitro Cp149 assembly, compounds of the present invention were added to the Cp149-containing suspension. The final concentration of Cp149 was 1 mg per mL, and the compounds of the present invention were added at concentrations of 0.1 to 10 μM. The suspension was mixed with reaction buffer (150 mM HEPES, pH 7.5, 15 mM NaCl) added in a 2:1 ratio. In vitro assembly was performed at 37° C. for 1 hour, and HBV capsid was detected by immunoblot analysis using an anti-HBV core antibody (1:2000, B0586, Dako).

HBV DNA = assay: Quantitative PCR for measuring HBV DNA in cells (HBV DNA quantification); format: cell-based
Method: After treating cells with the indicated compounds, HBV DNA secreted into the medium and intracellular HBV DNA were extracted, purified, and quantified by quantitative PCR. To isolate the secreted HBV DNA, the culture medium was recovered and centrifuged at 15,000×g to remove debris. The medium was diluted 1:1 with phosphate-buffered saline (PBS), and 1 M NaOH solution was added to a final concentration of 0.1 M. The mixture was incubated at 37° C. for 1 hour. The protein was denatured by adding 2M Tris-HCl solution (pH 7.5) to a final concentration of 0.2 M and incubating at 98° C. for 5 minutes. The protein precipitation was removed by centrifugation at 15,000×g, and the supernatant was subjected to PCR with HBV DNA primer and probe sets:
Forward: 5′-[…]-3′, Reverse: 5′-[…]-3′, Probe: 5′-[…]-3′.

[2] = Hepatitis B virus, read-out: HBV DNA quantification (IC50 μM)
[3] = Hepatitis B virus; read-out: HBV DNA quantification (IC50 μM)

T1 sequence (P03146 1-149): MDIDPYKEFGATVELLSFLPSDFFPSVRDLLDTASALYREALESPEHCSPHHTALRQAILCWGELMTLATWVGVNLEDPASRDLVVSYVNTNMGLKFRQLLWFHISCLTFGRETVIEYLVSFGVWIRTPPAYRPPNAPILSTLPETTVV

| Compound | inhibition at 0.1 µM [1] | inhibition at 1 µM [1] | IC50 (HBV DNA; [2]) | inhibition at 10 µM [1] | IC50 (HBV DNA; [3]) | also measured |
| --- | --- | --- | --- | --- | --- | --- |
| CS(=O)(=O)c1nc(Nc2ccc(F)c(Cl)c2)cc(N2CCC(N)CC2)n1 [Compound 26i, 6-(4-aminopiperidin-1-yl)-N-(3-chloro-4-fluorophenyl)-2-(methylsulfonyl)pyrimidin-4-amine] | 52% | 99% | 0.181 µM | – | – | – |
| CS(=O)(=O)c1nc(Nc2cc(F)c(F)c(F)c2)cc(Nc2cc(F)c(F)c(F)c2)n1 [Compound 18b, 2-(methylsulfonyl)-N^4,N^6-bis(3,4,5-trifluorophenyl)pyrimidine-4,6-diamine] | – | – | – | 69% | 1.02 µM | – |
| CS(=O)(=O)c1nc(Nc2cc(F)c(F)c(F)c2)cc(N2CCNCC2)n1 [Compound 26b, 2-(methylsulfonyl)-6-(piperazin-1-yl)-N-(3,4,5-trifluorophenyl)pyrimidin-4-amine] | 39% | 92% | – | – | 0.203 µM | – |
| COc1ncccc1C(=O)NCCNc1cc(Nc2ccc(Br)cc2)nc([S+](C)[O-])n1 (centres unmarked) [Compound 9d, N-(2-(6-(4-bromophenylamino)-2-(methylsulfinyl)pyrimidin-4-ylamino)ethyl)-2-methoxynicotinamide] | 27% | 82% | 0.177 µM | – | – | – |
| COc1cncc(C(=O)NCCNc2cc(Nc3ccc(N4CCOCC4)cc3)nc(SC)n2)c1 [Compound 4b, 5-methoxy-N-(2-(2-(methylthio)-6-(4-morpholinophenylamino)pyrimidin-4-ylamino)ethyl)nicotinamide] | – | – | – | 37% | > 10 µM | – |
| 6-(4-aminopiperidin-1-yl)-2-(methylsulfonyl)-N-(3,4,5-trifluorophenyl)pyrimidin-4-amine [Compound 26h] | – | – | – | – | – | Protein based assay (% inhibition), 0.1 μM ([1]; compound 0.1 μM): 29%; Protein based assay (% inhibition), 1 μM ([1]; compound 1 μM): 96%; IC50 (HBV DNA; read-out: HBV DNA quantification (IC50 μM)): 0.292 µM |
| CC(C)(C)OC(=O)N1CCN(c2cc(NCc3ccc(Cl)cc3)nc(S(C)(=O)=O)n2)CC1 [Compound 22d, tert-butyl 4-(6-(4-chlorobenzylamino)-2-(methylsulfonyl)pyrimidin-4-yl)piperazine-1-carboxylate] | – | – | 5.08 µM | 55% | – | – |
| CS(=O)(=O)c1nc(Nc2ccc(F)c(Cl)c2)cc(NC2CCNCC2)n1 [Compound 26f, N^4-(3-chloro-4-fluorophenyl)-2-(methylsulfonyl)-N^6-(piperidin-4-yl)pyrimidine-4,6-diamine] | 59% | 95% | 0.199 µM | – | – | – |
| COc1ncccc1C(=O)NCCNc1cc(Nc2ccc(F)c(F)c2)nc([S+](C)[O-])n1 (centres unmarked) [Compound 9f, N-(2-(6-(3,4-difluorophenylamino)-2-(methylsulfinyl)pyrimidin-4-ylamino)ethyl)-2-methoxynicotinamide] | – | – | > 10 µM | 38% | – | – |
| COc1ncccc1C(=O)NCCNc1cc(Nc2ccc(F)cc2Cl)nc(S(C)(=O)=O)n1 [Compound 9i, N-(2-(6-(2-chloro-4-fluorophenylamino)-2-(methylsulfonyl)pyrimidin-4-ylamino)ethyl)-2-methoxynicotinamide] | – | – | > 10 µM | 43% | – | – |
| CSc1nc(N)cc(N(Cc2ccc(F)cc2)c2ccc(N3CCOCC3)cc2)n1 [Compound 11a, N^4-(4-fluorobenzyl)-2-(methylthio)-N^4-(4-morpholinophenyl)pyrimidine-4,6-diamine] | – | – | – | 71% | > 10 µM | – |
| CC(C)(C)OC(=O)N1CCN(c2cc(Nc3ccc(Cl)cc3)nc(S(C)(=O)=O)n2)CC1 [Compound 22c, tert-butyl 4-(6-(4-chlorophenylamino)-2-(methylsulfonyl)pyrimidin-4-yl)piperazine-1-carboxylate] | – | – | 0.577 µM | 68% | – | – |
| COc1ncccc1C(=O)NCCNc1cc(Nc2ccc(I)cc2)nc([S+](C)[O-])n1 (centres unmarked) [Compound 9e, N-(2-(6-(4-iodophenylamino)-2-(methylsulfinyl)pyrimidin-4-ylamino)ethyl)-2-methoxynicotinamide] | – | – | – | 37% | > 10 µM | – |
| COc1ncccc1C(=O)NCCNc1cc(Nc2ccc(F)c(F)c2)nc(S(C)(=O)=O)n1 [Compound 9g, N-(2-(6-(3,4-difluorophenylamino)-2-(methylsulfonyl)pyrimidin-4-ylamino)ethyl)-2-methoxynicotinamide] | – | – | > 10 µM | 59% | – | – |
| CC(C)(C)OC(=O)N1CCN(c2cc(NCc3ccc(F)cc3)nc(S(C)(=O)=O)n2)CC1 [Compound 22b, tert-butyl 4-(6-(4-fluorobenzylamino)-2-(methylsulfonyl)pyrimidin-4-yl)piperazine-1-carboxylate] | – | – | 0.549 µM | 40% | – | – |
| CS(=O)(=O)c1nc(Nc2cc(F)c(F)c(F)c2)cc(NC2CCNCC2)n1 [Compound 26e, 2-(methylsulfonyl)-N^4-(piperidin-4-yl)-N^6-(3,4,5-trifluorophenyl)pyrimidine-4,6-diamine] | 16% | 90% | – | – | 0.19 µM | – |
| COc1ncccc1C(=O)NCCNc1cc(Nc2ccccc2)nc(SC)n1 [Compound 8a, 2-methoxy-N-(2-(2-(methylthio)-6-(phenylamino)pyrimidin-4-ylamino)ethyl)nicotinamide] | – | – | – | 0% | – | IC50 (HBV DNA; Hepatitis B virus, read-out: HBV DNA quantification): > 10 µM |
| CC(C)(C)OC(=O)N1CCN(c2cc(Nc3ccc(Br)cc3)nc(S(C)(=O)=O)n2)CC1 [Compound 22e, tert-butyl 4-(6-(4-bromophenylamino)-2-(methylsulfonyl)pyrimidin-4-yl)piperazine-1-carboxylate] | – | – | 0.652 µM | 67% | – | – |
| COc1ncccc1C(=O)NCCNc1cc(Nc2ccc(F)cc2)nc([S+](C)[O-])n1 (centres unmarked) [Compound 9b, N-(2-(6-(4-fluorophenylamino)-2-(methylsulfinyl)pyrimidin-4-ylamino)ethyl)-2-methoxynicotinamide] | 32% | 83% | – | – | 0.21 µM | – |
| CS(=O)(=O)c1nc(Nc2ccc(F)c(Br)c2)cc(N2CCC(N)CC2)n1 [Compound 26j, 6-(4-aminopiperidin-1-yl)-N-(3-bromo-4-fluorophenyl)-2-(methylsulfonyl)pyrimidin-4-amine] | 10% | 98% | – | – | 0.48 µM | – |
| CC(C)(C)OC(=O)N1CCN(c2cc(Nc3cc(F)c(F)c(F)c3)nc(S(C)(=O)=O)n2)CC1 [Compound 22h, tert-butyl 4-(2-(methylsulfonyl)-6-(3,4,5-trifluorophenylamino)pyrimidin-4-yl)piperazine-1-carboxylate] | – | – | 0.577 µM | 96% | – | – |
| COc1ncccc1C(=O)NCCNc1cc(Nc2ccc(N3CCOCC3)cc2)nc([S+](C)[O-])n1 (centres unmarked) [Compound 5a, 2-methoxy-N-(2-(2-(methylsulfinyl)-6-(4-morpholinophenylamino)pyrimidin-4-ylamino)ethyl)nicotinamide] | 43% | 83% | – | 95% | 0.402 µM | IC50 [1]: 5.3 µM |
| CC(C)(C)OC(=O)N1CCN(c2cc(Nc3ccc(F)cc3)nc(S(C)(=O)=O)n2)CC1 [Compound 22a, tert-butyl 4-(6-(4-fluorophenylamino)-2-(methylsulfonyl)pyrimidin-4-yl)piperazine-1-carboxylate] | – | – | 0.831 µM | 68% | – | – |
| CC(C)(C)OC(=O)N1CCN(c2cc(NCc3cc(F)c(F)c(F)c3)nc(S(C)(=O)=O)n2)CC1 [Compound 22l, tert-butyl 4-(2-(methylsulfonyl)-6-(3,4,5-trifluorobenzylamino)pyrimidin-4-yl)piperazine-1-carboxylate] | – | – | 1.02 µM | 89% | – | – |
| COc1ncccc1C(=O)NCCNc1cc(Nc2ccc(Cl)cc2)nc([S+](C)[O-])n1 (centres unmarked) [Compound 9c, N-(2-(6-(4-chlorophenylamino)-2-(methylsulfinyl)pyrimidin-4-ylamino)ethyl)-2-methoxynicotinamide] | 27% | 80% | 0.299 µM | – | – | – |
